Experimental data published in ChEMBL document CHEMBL3808318, “Design, synthesis and inhibitory activity against human dihydroorotate dehydrogenase (hDHODH) of 1,3-benzoazole derivatives bearing amide units” (Bioorg Med Chem Lett, 2016).

Key:
[1] = target: T1, Dihydroorotate dehydrogenase (quinone), mitochondrial (Homo sapiens, UniProt Q02127); assay: Inhibition of human DHODH assessed as decrease in DCIP at 10 uM using dihydroorotate as substrate measured every 30 seconds for 6 mins
[2] = target: T1, Dihydroorotate dehydrogenase (quinone), mitochondrial; assay: Inhibition of human DHODH assessed as decrease in DCIP using dihydroorotate as substrate measured every 30 seconds for 6 mins
[3] = target: T1, Dihydroorotate dehydrogenase (quinone), mitochondrial; assay: Potency index, ratio of A771726 IC50 to compound IC50 for human DHODH

T1 sequence (Q02127 whole entry): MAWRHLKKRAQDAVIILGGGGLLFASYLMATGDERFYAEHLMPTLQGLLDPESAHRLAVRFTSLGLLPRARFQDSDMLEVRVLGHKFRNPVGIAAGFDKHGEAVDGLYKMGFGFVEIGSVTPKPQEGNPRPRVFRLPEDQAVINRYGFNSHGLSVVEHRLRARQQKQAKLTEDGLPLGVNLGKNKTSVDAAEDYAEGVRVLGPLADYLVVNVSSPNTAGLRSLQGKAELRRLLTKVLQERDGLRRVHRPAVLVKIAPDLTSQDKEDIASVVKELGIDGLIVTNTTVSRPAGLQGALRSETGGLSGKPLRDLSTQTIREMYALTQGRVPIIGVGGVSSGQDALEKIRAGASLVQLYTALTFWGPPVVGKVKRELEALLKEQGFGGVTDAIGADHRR

SMILES	inhibition [1]	IC50 [2]	Ratio IC50 [3]
CCNC(=O)c1cccc2nc(-c3cc(Br)nn3-c3ncccc3Cl)[nH]c12	24.9%	–	–
COc1cccc(OC)c1NC(=O)c1cccc2nc(-c3cc(Br)nn3-c3ncccc3Cl)[nH]c12	0%	–	–
Cc1ccccc1NC(=O)c1cccc2nc(-c3cc(Br)nn3-c3ncccc3Cl)[nH]c12	73.9%	676 nM	–
O=C(NCc1ccc(C(F)(F)F)cc1)c1cccc2nc(-c3cc(Br)nn3-c3ncccc3Cl)[nH]c12	32%	–	–
COc1ccc(NC(=O)c2cccc3nc(-c4cc(Br)nn4-c4ncccc4Cl)[nH]c23)cc1	36.1%	–	–
O=C(NCc1ccccc1)c1cccc2nc(-c3cc(Br)nn3-c3ncccc3Cl)[nH]c12	34.9%	–	–
CNC(=O)c1cccc2nc(-c3cc(Br)nn3-c3ncccc3Cl)[nH]c12	14.1%	–	–
COc1ccc(NC(=O)c2cccc3nc(-c4cc(Br)nn4-c4ncccc4Cl)[nH]c23)c(OC)c1	1.3%	–	–
Cc1cccc(NC(=O)c2cccc3nc(-c4cc(Br)nn4-c4ncccc4Cl)[nH]c23)c1	18.9%	–	–
COc1ccccc1NC(=O)c1cccc2nc(-c3cc(Br)nn3-c3ncccc3Cl)[nH]c12	60.5%	178 nM	2
C/C(O)=C(\C#N)C(=O)Nc1ccc(C(F)(F)F)cc1	64%	–	–
O=C(Nc1ccccc1)c1cccc2nc(-c3cc(Br)nn3-c3ncccc3Cl)[nH]c12	49.4%	–	–
O=C(Nc1ccc(F)c(F)c1F)c1cccc2nc(-c3cc(Br)nn3-c3ncccc3Cl)[nH]c12	31.9%	–	–
CCCNC(=O)c1cccc2nc(-c3cc(Br)nn3-c3ncccc3Cl)[nH]c12	23.4%	–	–
COc1ccc(C(F)(F)F)cc1NC(=O)c1cccc2nc(-c3cc(Br)nn3-c3ncccc3Cl)[nH]c12	55.2%	4850 nM	–
O=C(NCc1ccccn1)c1cccc2nc(-c3cc(Br)nn3-c3ncccc3Cl)[nH]c12	27.6%	–	–
Cc1ccc(NC(=O)c2cccc3nc(-c4cc(Br)nn4-c4ncccc4Cl)[nH]c23)c(C)c1	48.8%	–	–
O=C(Nc1ccccc1F)c1cccc2nc(-c3cc(Br)nn3-c3ncccc3Cl)[nH]c12	38.8%	–	–
COc1cccc(F)c1NC(=O)c1cccc2nc(-c3cc(Br)nn3-c3ncccc3Cl)[nH]c12	15.7%	–	–
O=C(Nc1ccccc1I)c1cccc2nc(-c3cc(Br)nn3-c3ncccc3Cl)[nH]c12	24.8%	–	–
CCCNC(=O)c1cccc2oc(-c3cc(Br)nn3-c3ncccc3Cl)nc12	30.1%	–	–
Cc1ccc(CNC(=O)c2cccc3nc(-c4cc(Br)nn4-c4ncccc4Cl)[nH]c23)cc1	22.7%	–	–
O=C(Nc1ccc(F)cc1F)c1cccc2nc(-c3cc(Br)nn3-c3ncccc3Cl)[nH]c12	26.9%	–	–
O=C(NCc1c(F)ccc(F)c1F)c1cccc2nc(-c3cc(Br)nn3-c3ncccc3Cl)[nH]c12	43%	–	–
O=C(Nc1ccccc1Br)c1cccc2nc(-c3cc(Br)nn3-c3ncccc3Cl)[nH]c12	27.6%	–	–
CCCNC(=O)c1cccc2nc(-c3cc(Br)nn3-c3ncccc3Cl)oc12	26.6%	–	–
O=C(NCc1ccc(Cl)cc1)c1cccc2nc(-c3cc(Br)nn3-c3ncccc3Cl)[nH]c12	44%	–	–
COc1cccc(C)c1NC(=O)c1cccc2nc(-c3cc(Br)nn3-c3ncccc3Cl)[nH]c12	9.43%	–	–
O=C(Nc1ccc(C(F)(F)F)cc1)c1cccc2nc(-c3cc(Br)nn3-c3ncccc3Cl)[nH]c12	36.3%	–	–
